The term IC50 denotes the concentration needed to halve the response being measured. Broadly, the Ki is a dissociation constant, usually derived from enzyme kinetics or from competition with a known ligand.

One test deals with T1, Endothelin-1 receptor (Homo sapiens, UniProt P25101).
T1 sequence (P25101 whole entry): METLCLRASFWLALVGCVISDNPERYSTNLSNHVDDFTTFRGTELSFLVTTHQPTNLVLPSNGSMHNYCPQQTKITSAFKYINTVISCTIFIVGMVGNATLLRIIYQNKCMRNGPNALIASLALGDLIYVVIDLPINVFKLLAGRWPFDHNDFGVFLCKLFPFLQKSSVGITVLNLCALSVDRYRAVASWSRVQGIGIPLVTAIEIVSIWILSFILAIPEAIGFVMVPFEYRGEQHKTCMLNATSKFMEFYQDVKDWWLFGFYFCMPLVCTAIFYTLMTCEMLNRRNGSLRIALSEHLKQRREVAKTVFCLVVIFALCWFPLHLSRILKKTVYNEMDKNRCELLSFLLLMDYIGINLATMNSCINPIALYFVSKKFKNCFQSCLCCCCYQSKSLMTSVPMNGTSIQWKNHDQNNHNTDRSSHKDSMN
The class given is cell membranes, Membrane. To be noted: cho-k1.

The next test deals with Melanocortin receptor 4 (Homo sapiens, UniProt P32245). The class given is cell membranes, Membrane. To be noted: hek293.
Test [1] has as its target Mitogen-activated protein kinase 3 (Homo sapiens, UniProt P27361). The experiment in a line: DRUGMATRIX: Protein Serine/Threonine Kinase, ERK1 enzyme inhibition (substrate: Myelin Basic Protein). More on the design: species or system Escherichia coli. The conditions noted are these: Not Active = under 50% inhibition at 10 µM.
Another test deals with T2, Leukotriene C4 synthase (Cavia porcellus, UniProt A6XA80).
T2 sequence (A6XA80 whole entry): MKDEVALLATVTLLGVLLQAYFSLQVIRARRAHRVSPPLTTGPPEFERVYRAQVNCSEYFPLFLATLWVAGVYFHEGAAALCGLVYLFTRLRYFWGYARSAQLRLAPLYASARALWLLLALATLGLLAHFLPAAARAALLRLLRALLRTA
The class given is tissue-based, Lung.

In test [2] the target is Sodium-dependent dopamine transporter (Homo sapiens, UniProt Q01959). The experiment in a line: DRUGMATRIX: Dopamine Transporter radioligand binding (ligand: [125I] RTI-55). To be noted: cho-k1; Not Active = under 50% inhibition at 10 µM. The class given is cell membranes, CHO-K1, Membrane.
For a further test, the target named is D(1A) dopamine receptor (Homo sapiens, UniProt P21728). The experiment in a line: DRUGMATRIX: Dopamine D1 radioligand binding (ligand: [3H] SCH-23390). The conditions noted are these: cho; Not Active = under 50% inhibition at 10 µM. The class given is cell membranes, CHO, Membrane.
Sequence of D(1A) dopamine receptor (P21728 whole entry): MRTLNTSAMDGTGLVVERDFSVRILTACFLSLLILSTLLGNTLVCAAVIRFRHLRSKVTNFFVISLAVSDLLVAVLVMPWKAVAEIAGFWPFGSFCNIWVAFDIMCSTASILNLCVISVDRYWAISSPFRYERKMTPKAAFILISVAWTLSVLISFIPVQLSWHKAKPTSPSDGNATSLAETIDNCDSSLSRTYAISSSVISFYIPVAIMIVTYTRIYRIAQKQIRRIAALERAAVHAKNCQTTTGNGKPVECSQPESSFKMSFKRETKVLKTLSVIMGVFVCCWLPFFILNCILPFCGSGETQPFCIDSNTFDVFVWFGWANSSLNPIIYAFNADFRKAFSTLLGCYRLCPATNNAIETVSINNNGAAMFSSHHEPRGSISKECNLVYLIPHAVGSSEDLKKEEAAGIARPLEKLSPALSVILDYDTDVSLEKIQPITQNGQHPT

Sequence of Mitogen-activated protein kinase 3 (P27361 whole entry): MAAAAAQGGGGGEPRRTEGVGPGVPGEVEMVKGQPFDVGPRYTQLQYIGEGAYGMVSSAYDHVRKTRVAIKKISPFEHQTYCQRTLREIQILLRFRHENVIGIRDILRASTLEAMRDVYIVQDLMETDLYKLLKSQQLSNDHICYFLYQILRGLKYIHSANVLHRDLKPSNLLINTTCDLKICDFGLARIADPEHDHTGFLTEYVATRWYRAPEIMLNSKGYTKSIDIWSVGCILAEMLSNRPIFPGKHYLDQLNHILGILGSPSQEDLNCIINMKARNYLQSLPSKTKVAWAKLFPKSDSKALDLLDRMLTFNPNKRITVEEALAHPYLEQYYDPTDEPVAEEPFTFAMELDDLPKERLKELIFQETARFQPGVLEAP
Sequence of Melanocortin receptor 4 (P32245 whole entry): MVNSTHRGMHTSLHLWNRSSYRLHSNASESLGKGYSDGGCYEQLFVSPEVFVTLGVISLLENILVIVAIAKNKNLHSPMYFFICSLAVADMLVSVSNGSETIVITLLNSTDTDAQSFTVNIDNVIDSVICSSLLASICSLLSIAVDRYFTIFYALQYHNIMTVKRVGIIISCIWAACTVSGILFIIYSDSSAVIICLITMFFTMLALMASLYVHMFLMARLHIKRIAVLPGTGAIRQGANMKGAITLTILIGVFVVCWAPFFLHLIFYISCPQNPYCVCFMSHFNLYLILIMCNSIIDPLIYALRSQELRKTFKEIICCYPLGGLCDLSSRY
Sequence of Sodium-dependent dopamine transporter (Q01959 whole entry): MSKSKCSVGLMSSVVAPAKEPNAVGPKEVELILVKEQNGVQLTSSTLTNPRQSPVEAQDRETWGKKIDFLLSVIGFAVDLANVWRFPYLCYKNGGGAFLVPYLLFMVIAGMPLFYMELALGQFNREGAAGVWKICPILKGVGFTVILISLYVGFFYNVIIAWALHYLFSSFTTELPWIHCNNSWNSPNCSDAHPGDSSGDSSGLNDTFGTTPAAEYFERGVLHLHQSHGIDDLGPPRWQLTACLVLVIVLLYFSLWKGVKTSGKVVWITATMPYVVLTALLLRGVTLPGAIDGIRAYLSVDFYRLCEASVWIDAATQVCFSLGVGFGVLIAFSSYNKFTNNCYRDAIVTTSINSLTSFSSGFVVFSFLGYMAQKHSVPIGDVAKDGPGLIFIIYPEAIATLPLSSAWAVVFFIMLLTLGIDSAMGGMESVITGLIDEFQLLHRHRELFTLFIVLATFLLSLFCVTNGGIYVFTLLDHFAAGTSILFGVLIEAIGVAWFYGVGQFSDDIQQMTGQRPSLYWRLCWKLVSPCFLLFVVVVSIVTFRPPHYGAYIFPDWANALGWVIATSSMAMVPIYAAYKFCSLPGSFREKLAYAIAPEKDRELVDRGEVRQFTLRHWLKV

`CC[C@]1(O)C[C@@H]2CN(CCc3c([nH]c4ccccc34)[C@@](C(=O)OC)(c3cc4c(cc3OC)N(C)[C@H]3[C@@](O)(C(N)=O)[C@H](O)[C@]5(CC)C=CCN6CC[C@]43[C@@H]65)C2)C1` [VINDESINE]: the IC50 entry (against Endothelin-1 receptor; on Melanocortin receptor 4; in test [1]; at Leukotriene C4 synthase; in test [2]; on D(1A) dopamine receptor) was “Not Active” throughout.

For `CCN(C(C)=O)c1cccc(-c2ccnc3c(C#N)cnn23)c1` [ZALEPLON], the IC50 result (against Endothelin-1 receptor; against Melanocortin receptor 4; in test [1]; at Leukotriene C4 synthase; in test [2]; on D(1A) dopamine receptor) was “Not Active” throughout.

As to COBALTOUS CHLORIDE, the IC50 entry (at Endothelin-1 receptor; at Melanocortin receptor 4; in test [1]; against Leukotriene C4 synthase; in test [2]; at D(1A) dopamine receptor) was “Not Active” each time. The Ki entry (on Endothelin-1 receptor; at Melanocortin receptor 4; in test [1]; at Leukotriene C4 synthase; in test [2]; at D(1A) dopamine receptor) was “Not Active” throughout.

For COLISTIN, the IC50 entry on Endothelin-1 receptor is “Not Active”; on Melanocortin receptor 4 (read-out: IC50), 841 nM; in test [1], “Not Active”; on Leukotriene C4 synthase, “Not Active”; in test [2], “Not Active”; at D(1A) dopamine receptor it was “Not Active”. The Ki result on Endothelin-1 receptor was “Not Active”; at Melanocortin receptor 4 (read-out: Ki) it was 809 nM; in test [1], “Not Active”; on Leukotriene C4 synthase it was “Not Active”; in test [2], “Not Active”; at D(1A) dopamine receptor, “Not Active”.

The values above are taken from ChEMBL document CHEMBL1909046, “DrugMatrix in vitro pharmacology data”.
